Experimental data reported in patent US9102648B1, “Bioavailable diacylhydrazine ligands for modulating the expression of exogenous genes via an ecdysone receptor complex” (Intrexon Corporation, priority 2003, dated 2015).
In brackets after ≈: the same amount, converted by molar mass.

Experiments:
[1] = system: mutated ecdysone receptor-based gene switch; assay: In vivo SEAP induction, ligand administered in rodent chow; design: species or system C57BL/6 mouse; settings: feed 2 g/kg ad libitum
Protocol: Applicants' ligands are useful in various applications including gene therapy, expression of proteins of interest in host cells, production of transgenic organisms, and cell-based assays. In vivo induction of a reporter enzyme with various ligands of the present invention was evaluated in a C57BL/6 mouse model system containing a gene switch.
Each element of the gene switch was on a separate plasmid. Receptor expression was under the control of a CMV promoter (SEQ ID NO: 15). Induction was evaluated by the amount of reporter protein expressed in the presence of ligand.
SEAP expression in serum of mice was evaluated after electroporation of the gene switch into mouse quadriceps. Mice were anesthetized with 2 μL/g of a mixture of ketamine (100 mg/mL) and xylazine (20 mg/mL). Animals were then shaved, DNA vectors injected into the muscle in a volume of 2×50 μL polyglutamic acid (12 mg/mL water), electrode conductivity gel applied, and an electrode caliber (1 cm×1 cm; model 384) was placed on hind leg. The muscle was electroporated with 200 V/cm, 8 times, for 20 msec/pulse, at 1 sec time intervals. The transverse electrical field direction was reversed after the animals received half of the pulses. Electroporation was performed with an ECM 830 electroporator from BTX Molecular Delivery Systems.
In some experiments mice received an intraperitoneal injection (IP) of 2.6 μmol of ligand in 50 μL of DMSO 3 days after electroporation of the gene switch. In other experiments the concentration of ligand was decrease to 26 nmol/50 μL of DMSO/mouse. SEAP expression was evaluated 2-11 days after ligand administration. In other experiments ligand was administered in rodent chow. The chow was prepared by dissolving 2 g of ligand in 20 mL of acetone and adding it to 1 kg of LabDiet 5010 autoclavable chow from Purina Mills. This was thoroughly mixed in a Hobart mixer and then mixed for an additional 15 min in a Cross Blend mixer. Animals received chow ad libitum for 1, 2, or 3 days. All values are the average from four animals. Background SEAP in sera from animals treated with vector alone without ligand addition was 0-11 ng/mL serum.
Mouse serum was obtained by centrifugation of blood acquired by retroorbital bleeding with a small glass capillary tube. SEAP quantification was determined using a Clontech Great Escape chemiluminescence kit and by comparison with the Clontech SEAP standard.
Table 11: Induction of SEAP in C57BL/6 mice with GS™-E ligand or RG-103309 administered in rodent chow. SEAP expression in serum of mice was evaluated after electroporation of the gene expression cassettes into mouse quadriceps. Mice received GS™-E ligand or RG-103309 in their feed (2 g/kg) 3 days after electroporation. Feed was administered ad libitum for 1, 2, or 3 days. After each interval ligand-treated feed was removed and animals received untreated feed. Values are the average from 4 animals.

physchem [2] = settings: pH 7.4, aqueous buffer, thermodynamic from solid
physchem [3] = settings: water, kinetic from dmso stock
Protocol: Aqueous solutions are prepared as follows in triplicate: 50 μl of a 10,000 ppm solution (2,000 μg of solid dissolved in 200 μl of methanol) of the substrate in methanol or DMSO is added to 1 mL of de-ionized water in a 2 dram or smaller vial with magnetic stirring. Stirring is continued overnight at ambient temperature. The slurry is taken up into a syringe with a luer tip. The contents are passed through a new 13 mm 0.2 ρM Acrodisc filter (tuffryn or glass fiber) into an autosampler bottle. For preparation of calibration standard solutions: dilutions of the 10,000 ppm solution were prepared at 10, 5, 1, 0.5, and 0.2 ppm. […] For more soluble materials, dilution of the samples into this range is preferable to increasing the calibration range because the non-linearity of the response results in less useful calibration curves. However a shift in the range of calibration standards is required for very insoluble compounds.
Chromatography of the samples was then preformed. For most diacylhydrazines the following conditions were adequate for the measurement. Other columns and gradients may be substituted as appropriate.
Analysis of the test samples is conducted as follows: Each solubility replicate is analyzed in duplicate. […] Standard curves are obtained from duplicate injections of the standards. The concentration of the substrate is determined by calculation from the equation relating concentration and response.

SMILES	Secreted Alkaline Phosphatase Day 2 ([1]; dose period 1 day)	Secreted Alkaline Phosphatase Day 3 ([1]; dose period 1 day)	Secreted Alkaline Phosphatase Day 7 ([1]; dose period 1 day)	Secreted Alkaline Phosphatase Day 2 ([1]; dose period 2 day)	Secreted Alkaline Phosphatase Day 3 ([1]; dose period 2 day)	Secreted Alkaline Phosphatase Day 7 ([1]; dose period 2 day)	Secreted Alkaline Phosphatase Day 2 ([1]; dose period 3 day)	Secreted Alkaline Phosphatase Day 3 ([1]; dose period 3 day)	Secreted Alkaline Phosphatase Day 7 ([1]; dose period 3 day)	solubility (physchem [2])	solubility kinetic (physchem [3])
CCc1c(OC)cccc1C(=O)NN(C(=O)c1cc(C)cc(C)c1)C(C)(C)C [RG-102240, N-(3-methoxy-2-ethylbenzoyl)-N′-(3,5-dimethylbenzoyl)-N′-tert-butylhydrazine]	7,302 ng/ml mouse sera	7,670 ng/ml mouse sera	3,784 ng/ml mouse sera	13,046 ng/ml mouse sera	15,831 ng/ml mouse sera	8,816 ng/ml mouse sera	8,064 ng/ml mouse sera	11,392 ng/ml mouse sera	8,372 ng/ml mouse sera	–	–
Cc1cc(C)cc(C(=O)N(NC(=O)c2ccc3c(c2C)OCCO3)C(C)(C)C)c1 [RG-102317, N-(5-methyl-1,4-benzodioxan-6-carbonyl)-N′-(tert-butyl)-N′-(3,5-dimethylbenzoyl)hydrazine]	–	–	–	–	–	–	–	–	–	4.3 µg/mL (≈ 10.8 µM)	10.1 µM (≈ 4 µg/mL)
CCC(N(NC(=O)c1cccc(C)c1C)C(=O)c1cc(C)cc(C)c1)C(C)(C)C (centres unmarked) [RG-103309, 3,5-dimethyl-benzoic acid N′-(2,3-dimethyl-benzoyl)-N-(1-ethyl-2,2-dimethyl-propyl)-hydrazide]	9,003 ng/ml mouse sera	14,850 ng/ml mouse sera	5,172 ng/ml mouse sera	6,971 ng/ml mouse sera	16,518 ng/ml mouse sera	7,460 ng/ml mouse sera	11,126 ng/ml mouse sera	20,373 ng/ml mouse sera	11,549 ng/ml mouse sera	–	–
